From patent US20150105252A1, “SUBSTITUTED PYRAZOLES AS HERBICIDES” (E I DU PONT DE NEMOURS AND COMPANY, priority 2013, published 2015)

What was measured:
[1] = system: barnyardgrass; assay: Test A preemergence; format: in vivo, Echinochloa crus-galli; conditions: 0 to 100 scale
Text: (§1) Seeds of plant species selected from barnyardgrass (Echinochloa crus-galli), kochia (Kochia scoparia), common ragweed (Ambrosia elation), Italian ryegrass (Lolium multiflorum), crabgrass, large (large crabgrass, Digitaria sanguinalis), foxtail, giant (giant foxtail, Setaria faberii), morningglory (Ipomoea spp.), pigweed (redroot pigweed, Amaranthus retroflexus), velvetleaf (Abutilon theophrasti), wheat (Triticum aestivum), and corn (Zea mays) were planted into a blend of loam soil and sand and treated preemergence with a directed soil spray using test chemicals formulated in a non-phytotoxic solvent mixture which included a surfactant.
(§2) At the same time, plants selected from these crop and weed species and also blackgrass (Alopecurus myosuroides), and galium (catchweed bedstraw, Galium aparine) were planted in pots containing the same blend of loam soil and sand and treated with postemergence applications of test chemicals formulated in the same manner. Plants ranged in height from 2 to 10 cm and were in the one- to two-leaf stage for the postemergence treatment. Treated plants and untreated controls were maintained in a greenhouse for approximately 10 days, after which time all treated plants were compared to untreated controls and visually evaluated for injury. Plant response ratings, summarized in Table A, are based on a 0 to 100 scale where 0 is no effect and 100 is complete control. A dash (-) response means no test result.

[2] = system: crabgrass, large; assay: Test A preemergence; format: in vivo, Digitaria sanguinalis; conditions: 0 to 100 scale
Text: as §1, §2

[3] = system: foxtail, giant; assay: Test A preemergence; format: in vivo, Setaria faberii; conditions: 0 to 100 scale
Text: as §1, §2

[4] = system: morningglory; assay: Test A preemergence; format: in vivo, Ipomoea spp.; conditions: 0 to 100 scale
Text: as §1, §2

[5] = system: pigweed; assay: Test A preemergence; format: in vivo, Amaranthus retroflexus; conditions: 0 to 100 scale
Text: as §1, §2

[6] = system: velvetleaf; assay: Test A preemergence; format: in vivo, Abutilon theophrasti; conditions: 0 to 100 scale
Text: as §1, §2

[7] = system: wheat; assay: Test A preemergence; format: in vivo, Triticum aestivum; conditions: 0 to 100 scale
Text: as §1, §2

[8] = system: corn; assay: Test A preemergence; format: in vivo, Zea mays; conditions: 0 to 100 scale
Text: as §1, §2

[9] = system: barnyardgrass; assay: Test A postemergence; format: in vivo, Echinochloa crus-galli; conditions: Postemergence
Text: as §1, §2

[10] = system: crabgrass, large; assay: Test A postemergence; format: in vivo, Digitaria sanguinalis
Text: as §1, §2

[11] = system: foxtail, giant; assay: Test A postemergence; format: in vivo, Setaria faberii
Text: as §1, §2

[12] = system: morningglory; assay: Test A postemergence; format: in vivo, Ipomoea spp.
Text: as §1, §2

[13] = system: pigweed; assay: Test A postemergence; format: in vivo, Amaranthus retroflexus
Text: as §1, §2

[14] = system: velvetleaf; assay: Test A postemergence; format: in vivo, Abutilon theophrasti
Text: as §1, §2

[15] = system: wheat; assay: Test A postemergence; format: in vivo, Triticum aestivum
Text: as §1, §2

[16] = system: corn; assay: Test A postemergence; format: in vivo, Zea mays
Text: as §1, §2

[17] = Preemergence, 500 g ai/ha, 0 no effect, 100 complete control
[18] = preemergence, 125 g ai/ha, visual injury, approx. 10 days
[19] = 125 g ai/ha, 0 to 100 scale, 0 no effect, 100 complete control
[20] = 500 g ai/ha, visual rating after approx. 10 days, 0 to 100 scale (0 no effect, 100 complete control)
[21] = Postemergence, 500 g ai/ha, visual rating after approx. 10 days, 0 to 100 scale (0 no effect, 100 complete control)
[22] = postemergence, 125 g ai/ha, about 10 days, visual rating on 0 to 100 scale (0 no effect, 100 complete control)
[23] = Preemergence, 1000 g ai/ha, 0 no effect, 100 complete control
[24] = Postemergence, 1000 g ai/ha, visual rating after approx. 10 days, 0 to 100 scale (0 no effect, 100 complete control)
[25] = Postemergence, 125 g ai/ha, 0 to 100 scale, 0 no effect, 100 complete control

SMILES | Barnyardgrass plant response rating [1, 17] | Barnyardgrass plant response rating [1, 18] | Foxtail, Giant plant response rating [3, 17] | Morningglory plant response rating [4, 17] | Morningglory plant response rating [4, 18] | Pigweed plant response rating [5, 17] | Velvetleaf plant response rating [6, 17] | Wheat plant response rating [7, 18] | Corn plant response rating [8, 18] | Barnyardgrass plant response rating [9, 19] | Barnyardgrass plant response rating [9, 20] | Crabgrass, Large plant response rating [10, 21] | Crabgrass, Large plant response rating [10, 22] | Foxtail, Giant plant response rating [11, 21] | Foxtail, Giant plant response rating [11, 22] | Morningglory plant response rating [12, 21] | Morningglory plant response rating [12, 22] | Pigweed plant response rating [13, 21] | Pigweed plant response rating [13, 22] | Velvetleaf plant response rating [14, 21] | other results
Cc1cc(C(=O)NCC(F)(F)C(F)(F)F)nn1Cc1cccc(C(F)(F)F)c1 [Compound 8] | 0 | 0 | 0 | 0 | 0 | 10 | 0 | 0 | 0 | 0 | 10 | 20 | 10 | 20 | 10 | 100 | 80 | 40 | 10 | 10 | Crabgrass, Large plant response rating [2, 17]: 0; Crabgrass, Large plant response rating [2, 18]: 0; Foxtail, Giant plant response rating [3, 18]: 0; Pigweed plant response rating [5, 18]: 0; Velvetleaf plant response rating [6, 18]: 0; Corn plant response rating [8, 17]: 0; Wheat plant response rating [15, 21]: 0; Wheat plant response rating [15, 22]: 0; Corn plant response rating [16, 21]: 0; Corn plant response rating [16, 22]: 0
Cc1cc(C(=O)NC2CC2)nn1Cc1ccc(F)c(C(F)(F)F)c1 [Compound 11] | 50 | 10 | 60 | 30 | 10 | 100 | 20 | 0 | 0 | 0 | 10 | 40 | 20 | 30 | 10 | 80 | 70 | 100 | 60 | 40 | Crabgrass, Large plant response rating [2, 17]: 90; Crabgrass, Large plant response rating [2, 18]: 60; Foxtail, Giant plant response rating [3, 18]: 20; Pigweed plant response rating [5, 18]: 60; Velvetleaf plant response rating [6, 18]: 0; Corn plant response rating [8, 17]: 0; Velvetleaf plant response rating [14, 22]: 30; Wheat plant response rating [15, 21]: 0; Wheat plant response rating [15, 22]: 0; Corn plant response rating [16, 21]: 20; Corn plant response rating [16, 22]: 0
Cc1cc(C(=O)NCC(F)(F)F)nn1Cc1ccc(F)c(C(F)(F)F)c1 [Compound 12] | 30 | 0 | 60 | 10 | 0 | 100 | 0 | 0 | 0 | 10 | 20 | 50 | 30 | 30 | 20 | 90 | 50 | 100 | 80 | 50 | Crabgrass, Large plant response rating [2, 17]: 60; Crabgrass, Large plant response rating [2, 18]: 40; Foxtail, Giant plant response rating [3, 18]: 10; Pigweed plant response rating [5, 18]: 70; Velvetleaf plant response rating [6, 18]: 0; Corn plant response rating [8, 17]: 0; Velvetleaf plant response rating [14, 22]: 40; Wheat plant response rating [15, 21]: 0; Wheat plant response rating [15, 22]: 0; Corn plant response rating [16, 21]: 20; Corn plant response rating [16, 22]: 10
Cc1cc(C(=O)NC2CC2)nn1Cc1cccc(OC(F)(F)F)c1 [Compound 21] | 90 | 0 | 100 | 40 | 0 | 100 | 50 | 0 | 0 | 0 | 60 | 80 | 30 | 50 | 20 | 90 | 80 | 100 | 90 | 40 | Velvetleaf plant response rating [14, 22]: 0; Wheat plant response rating [15, 21]: 10; Wheat plant response rating [15, 22]: 0; Corn plant response rating [16, 21]: 50; Corn plant response rating [16, 22]: 10
CCc1cc(C(=O)NCCC(F)(F)F)nn1Cc1cccc(C(F)(F)F)c1 [Compound 51] |  |  |  |  |  |  |  |  |  |  |  |  |  |  |  |  |  |  |  |  | Barnyardgrass plant response rating [1, 23]: 10; Crabgrass, Large plant response rating [2, 23]: 20; Foxtail, Giant plant response rating [3, 23]: 80; Morningglory plant response rating [4, 23]: 10; Pigweed plant response rating [5, 23]: 10; Velvetleaf plant response rating [6, 23]: 0; Wheat plant response rating [7, 23]: 0; Barnyardgrass plant response rating ([9]; 1000 g ai/ha, visual rating after approx. 10 days, 0 to 100 scale (0 no effect, 100 complete control)): 10; Crabgrass, Large plant response rating [10, 24]: 30; Foxtail, Giant plant response rating [11, 24]: 10; Morningglory plant response rating [12, 24]: 100; Pigweed plant response rating [13, 24]: 50; Velvetleaf plant response rating [14, 24]: 100; Wheat plant response rating [15, 24]: 20; Corn plant response rating [16, 24]: 10
O=C(NCC(F)(F)F)c1cc(CCCl)n(Cc2ccnc(C(F)(F)F)c2)n1 [Compound 193] |  |  |  |  |  |  |  |  |  |  |  |  |  |  |  |  |  |  |  |  | Morningglory plant response rating [12, 25]: 80; Pigweed plant response rating [13, 25]: 100; Velvetleaf plant response rating [14, 25]: 70; Wheat plant response rating [15, 25]: 0
